{"source": "patent US11311504B2", "about": "(priority 2012, dated 2022)", "tested_on": "rat", "settings": "in vivo"}
{"smiles": "CC(=O)Nc1ccc(O)cc1", "note": "[Paracetamol]", "values": [{"measurement": "timepoint of peak effect", "value": 120, "unit": "min p. appl."}]}
